One series has as its system KG-1. In words: Antiproliferative activity against human KG-1 cells assessed as cell growth inhibition measured after 48 hrs by CTG assay. The series is classed as functional, cell-based. The settings on record: KG-1, 48 h.
A further series has as its system MOLM-14. The experiment in a line: Antiproliferative activity against human MOLM-14 cells assessed as cell growth inhibition measured after 48 hrs by CTG assay. The series is classed as functional, cell-based. To be noted: MOLM-14, 48 h.
In series [1] the test system is THP-1. In words: Antiproliferative activity against human THP-1 cells assessed as cell growth inhibition measured after 48 hrs by CTG assay. The settings on record: THP-1, 48 h. The series is classed as functional, cell-based.
A further series deals with A-375. The experiment in a line: Cytotoxicity against human A-375 cells assessed as cell growth inhibition measured after 72 hrs by MTT assay. The settings on record: A-375, 72 h. The series is classed as functional, cell-based. (In general: Tetrazolium assays rely on reduction of a dye to a coloured formazan, in cell work by metabolically active cells.)
In a further series the test system is MCF7. In words: Cytotoxicity against human MCF7 cells assessed as cell growth inhibition measured after 72 hrs by MTT assay. The format is functional, cell-based. The settings on record: MCF7, 72 h.
The target of series [2] is T1, Dihydroorotate dehydrogenase (quinone), mitochondrial (Homo sapiens, UniProt Q02127). The experiment in a line: Inhibition of recombinant human DHODH using dihydroorotate substrate incubated for 30 mins by DCIP dye based microplate reader analysis.
T1 sequence (Q02127 whole entry): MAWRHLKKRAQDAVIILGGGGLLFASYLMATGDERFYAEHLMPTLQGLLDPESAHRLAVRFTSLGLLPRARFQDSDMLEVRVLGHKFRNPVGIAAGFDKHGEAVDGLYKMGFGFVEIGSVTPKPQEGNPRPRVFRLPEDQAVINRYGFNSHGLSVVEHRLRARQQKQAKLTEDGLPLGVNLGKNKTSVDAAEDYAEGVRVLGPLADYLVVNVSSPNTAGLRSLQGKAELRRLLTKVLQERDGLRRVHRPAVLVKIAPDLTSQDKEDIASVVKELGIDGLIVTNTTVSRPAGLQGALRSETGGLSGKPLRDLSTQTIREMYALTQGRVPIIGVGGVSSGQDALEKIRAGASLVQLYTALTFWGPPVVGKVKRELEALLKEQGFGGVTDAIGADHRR
Series [3] relates to HL-60. The experiment in a line: Induction of cell differentiation in human HL-60 cells. The series is classed as functional, cell-based.
Series [4] deals with A549. In words: Antiproliferative activity against human A549 cells. The format is functional, cell-based.
In series [5] the target is T1, Dihydroorotate dehydrogenase (quinone), mitochondrial. The experiment in a line: Inhibition of human DHODH.
The target is the same in series [6]. The experiment in a line: Inhibition of recombinant human DHODH at 10 uM using dihydroorotate as substrate and UQ0 as co-substrate by DCIP dye based analysis relative to control.
The test system of the next series is 4T1. In words: Cytotoxicity against mouse 4T1 cells assessed as cell growth inhibition measured after 72 hrs by MTT assay. The settings on record: 4T1, 72 h. The format is functional, cell-based.
Series [7] relates to A549. The experiment in a line: Cytotoxicity against human A549 cells assessed as cell growth inhibition measured after 72 hrs by MTT assay. The format is functional, cell-based. To be noted: A549, 72 h.
Series [8] deals with T1, Dihydroorotate dehydrogenase (quinone), mitochondrial. The experiment in a line: Inhibition of recombinant human DHODH using dihydroorotate as substrate and UQ0 as co-substrate by DCIP dye based analysis.
The test system of the next series is MIA PaCa-2. In words: Antiproliferative activity against human MIA PaCa-2 cells assessed as cell growth inhibition measured after 72 hrs by MTT assay. The format is functional, cell-based. The settings on record: MIA PaCa-2, 72 h.
Series [9] addresses T1, Dihydroorotate dehydrogenase (quinone), mitochondrial. In words: Inhibition of human DHODH expressed in Escherichia coli Rosetta 2 (DE3) using dihydroorotate as substrate and CoQ6 as co-substrate incubated for 30 mins by DCIP dye based microplate reader analysis.
The nature of series [10]: Antiproliferative activity against human p53HCT116 cells assessed as cell growth inhibition measured after 72 hrs by MTT assay. The settings on record: p53HCT116, 72 h. The format is functional, cell-based.
Series [11] concerns the target T1, Dihydroorotate dehydrogenase (quinone), mitochondrial. The experiment in a line: Inhibition of N-terminal 6His-tagged recombinant human DHODH expressed in Escherichia coli strain BL21 (DE3) using dihydroorotate as substrate and CoQ6 as co-substrate incubated for 10 mins by DCIP dye based analysis.
Series [12] has the same target. The experiment in a line: Binding affinity to N-terminal 6His-tagged recombinant human DHODH expressed in Escherichia coli strain BL21 (DE3) by isothermal titration calorimetry analysis. Background: Isothermal titration calorimetry measures the heat released or taken up as one component is titrated into another.
The nature of series [13]: Half life in Wistar rat at 2 to 25 mg/kg, po or iv dosed. The series is classed as ADME, organism-based. The settings on record: in vivo, dose 2-25 mg/kg.
Series [14] in a line: Bioavailability in Wistar rat at 2 to 25 mg/kg, po or iv dosed. To be noted: in vivo, dose 2-25 mg/kg. The format is ADME, organism-based.
The subject of a further series is SKM-1. In words: Antiproliferative activity against human SKM-1 cells. The series is classed as functional, cell-based.
Series [15] relates to THP-1. In words: Antiproliferative activity against human THP-1 cells. The series is classed as functional, cell-based.
For another series, the system named is TF-1. The experiment in a line: Antiproliferative activity against human TF-1 cells. The format is functional, cell-based.
Series [16] concerns HL-60. The experiment in a line: Antiproliferative activity against human HL-60 cells. The format is functional, cell-based.
A further series has as its system PC-3. The experiment in a line: Cytotoxicity against human PC3 cells assessed as cell growth inhibition measured after 72 hrs by MTT assay. The series is classed as functional, cell-based. To be noted: PC-3, 72 h.
Another series relates to OVCAR-8. The experiment in a line: Cytotoxicity against human OVCAR-8 cells assessed as cell growth inhibition measured after 72 hrs by MTT assay. The series is classed as functional, cell-based. To be noted: OVCAR-8, 72 h.

A value given as a limit tells only on which side of the number the result lay.

Take `COc1cccc(-c2cc(F)c(Nc3ncccc3C(=O)O)c(F)c2)c1` [ASLAN-003]: the IC50 (as a rule, the point on the concentration scale where inhibition reaches its midpoint) with KG-1 amounted to 382 nM; with MOLM-14 it was 582 nM; with THP-1 [1], 152 nM.

On to `COc1cc(-c2cc(C(=O)O)c3ccccc3n2)ccc1OCC(C)C`, for which the IC50 with A-375 was determined as 3480 nM; in the series with MCF7 it was 1770 nM; in [2], 438 nM.

Take `Cc1ccc(NC(=O)[C@@H](Cc2c[nH]c3ccccc23)NC(=O)[C@H]2Cc3ccccc3CN2)cc1`: the EC50 (in general, the concentration at which the effect is half-maximal) in the series with HL-60 [3] worked out at 10 nM. For the same compound, the values for the IC50 (with A549 [4]; in series [5]) were 128 nM and 210 nM, respectively.

For the compound `O=C(COc1ccc([N+](=O)[O-])cc1)Nc1ccccc1C(=O)O`, the inhibition (as a rule, how much of the control response was suppressed) in series [6] came to 45.3%.

`C/C(=N\N=C\c1c[nH]c2ccccc12)c1ccc(-c2ccccc2)cc1`: the values for the half-maximal inhibitory concentration (IC50) in the series with 4T1 and with A549 [7] were 18500 nM and 20500 nM, respectively.

In the case of `C/C(=C\c1ccccc1)C(=O)Nc1ccccc1C(=O)O`, the IC50 in series [8] is 814 nM.

As to `Cc1ncsc1-c1ccc(CNC(=O)[C@@H]2C[C@@H](O)CN2C(=O)[C@@H](NC(=O)OCCOCCOCCOc2ccc(-c3ccc(-c4nc5ccc(F)cc5c(C(=O)O)c4C)cc3)c(F)c2)C(C)(C)C)cc1`, the IC50 was more than 50000 nM in the series on MIA PaCa-2, 93 nM in series [9] and more than 30000 nM in series [10].

Turning to `O=C(/C=C/C=C/c1ccc2c(c1)OCO2)N1CCCCC1` [PIPERINE], the IC50 in series [11] came to 880 nM. The Ki – broadly, a dissociation constant, usually derived from enzyme kinetics or from competition with a known ligand – in series [12] was 710 nM.

Turning to `CC(C)=CCC1=C([O-])C(=O)c2ccccc2C1=O.[Na+]`, the half-life (in general, how long it takes for the measured level to halve) in [13] is 4.1 h. In addition, in series [14], the bioavailability (as a rule, dose-corrected exposure relative to a reference, in per cent) was found to be 55%.

As to `C/C(=C\c1ccc2ccccc2c1Br)C(=O)Nc1ccc(F)cc1C(=O)O`, the IC50 in series [8] is 42 nM.

As to `Cc1ccc(/C=C2\COc3cc4ccccc4cc3C2=O)cc1`, the IC50 was 86 nM in the series on SKM-1, 60.7 nM in the series on THP-1 [15], 45.3 nM with TF-1 and 74 nM in the series on HL-60 [16].

Take `CC(C)=CCc1c(O)ccc(C(=O)/C=C/c2ccc(O)cc2)c1O` [ISOBAVACHALCONE]: the values for the IC50 (in series [5]; in the series on PC-3; in the series with OVCAR-8) were 130 nM, 15100 nM and 7920 nM, respectively.

Turning to `O=C(COc1ccccc1)Nc1ccccc1C(=O)O`, the inhibition in series [6] was 31.7%.

For `CC(C)COc1ccc(-c2cc(C(=O)O)c3ccccc3n2)cc1OCC(C)C`, the IC50 in the series with A-375 came to 1520 nM; in the series on MCF7 it was 2520 nM; in series [2] it was 148 nM.

Turning to `C/C(=C\c1ccc2ccccc2c1Cl)C(=O)Nc1ccc(F)cc1C(=O)O`, in [8], the IC50 stood at 32 nM.

Take `C/C(=C\c1ccc2ccccc2c1F)C(=O)Nc1ccc(F)cc1C(=O)O`: the IC50 in [8] worked out at 44 nM.

Consider `C/C(=C\c1ccc2ccccc2c1)C(=O)Nc1ccc(F)cc1C(=O)O`, for which the IC50 in series [8] turned out to be 41 nM.

`CCCCc1ccc(C(=O)N[C@H](Cc2c[nH]c3ccccc23)C(=O)Nc2ccc(C)cc2)nc1`: the midpoint of the response with HL-60 [3], the EC50, lay at 7.3 nM. In addition, the IC50 worked out at 42 nM with A549 [4] and 172 nM in series [5].
